Laboratory results as given in the kinase profiling compilation of Christmann-Franck et al. (2016).

How the values were obtained:
CAMK2G (human) = CAMK2G (human) (UniProt Q13555)
MAP3K5 (human) = MAP3K5 (human) (UniProt Q99683)
CSK (human) = CSK (human) (UniProt P41240)
SRC (human) = SRC (human) (UniProt P12931)
SGK223 (human) = SGK223 (human) (UniProt Q86YV5)
PAK4 (human) = PAK4 (human) (UniProt O96013)
CAMK2A (human) = CAMK2A (human) (UniProt Q9UQM7)
IKBKE (human) = IKBKE (human) (UniProt Q14164)
STRADA (human) = STRADA (human) (UniProt Q7RTN6)
CAMK1D (human) = CAMK1D (human) (UniProt Q8IU85)
FYN (human) = FYN (human) (UniProt P06241)
JAK1 JH1 JH2 (human) = JAK1 JH1 JH2 (human) (UniProt P23458)
ABL2 (human) = ABL2 (human) (UniProt P42684)
RPS6KA4 KD1 KD2 (human) = RPS6KA4 KD1 KD2 (human) (UniProt O75676)
FER (human) = FER (human) (UniProt P16591)
MAP2K2 (human) = MAP2K2 (human) (UniProt P36507)
TGFBR2 (human) = TGFBR2 (human) (UniProt P37173)
LIMK1 (human) = LIMK1 (human) (UniProt P53667)
TYK2 JH1 JH2 (human) = TYK2 JH1 JH2 (human) (UniProt P29597)
PRKAA1 (human) = PRKAA1 (human) (UniProt Q13131)
RPS6KA5 KD1 KD2 (human) = RPS6KA5 KD1 KD2 (human) (UniProt O75582)
STK17B (human) = STK17B (human) (UniProt O94768)
MAP2K5 (human) = MAP2K5 (human) (UniProt Q13163)
MAP3K2 (human) = MAP3K2 (human) (UniProt Q9Y2U5)
MAST3 (human) = MAST3 (human) (UniProt O60307)
MAP3K1 (human) = MAP3K1 (human) (UniProt Q13233)
FES (human) = FES (human) (UniProt P07332)
CDK13 (human) = CDK13 (human) (UniProt Q14004)
CSNK2A1 (human) = CSNK2A1 (human) (UniProt P68400)
PRKD2 (human) = PRKD2 (human) (UniProt Q9BZL6)
EIF2AK4 KD1 KD2 (human) = EIF2AK4 KD1 KD2 (human) (UniProt Q9P2K8)
STK10 (human) = STK10 (human) (UniProt O94804)
MARK2 (human) = MARK2 (human) (UniProt Q7KZI7)
CDK14 (human) = CDK14 (human) (UniProt O94921)
FGR (human) = FGR (human) (UniProt P09769)
CAMK2B (human) = CAMK2B (human) (UniProt Q13554)
SIK3 (human) = SIK3 (human) (UniProt Q9Y2K2)
ITK (human) = ITK (human) (UniProt Q08881)
HCK (human) = HCK (human) (UniProt P08631)
MAP4K5 (human) = MAP4K5 (human) (UniProt Q9Y4K4)
MAPK1 (human) = MAPK1 (human) (UniProt P28482)
MAP3K4 (human) = MAP3K4 (human) (UniProt Q9Y6R4)
CAMKK2 (human) = CAMKK2 (human) (UniProt Q96RR4)

Sequence of ABL2 (human) (P42684 whole entry, looked up): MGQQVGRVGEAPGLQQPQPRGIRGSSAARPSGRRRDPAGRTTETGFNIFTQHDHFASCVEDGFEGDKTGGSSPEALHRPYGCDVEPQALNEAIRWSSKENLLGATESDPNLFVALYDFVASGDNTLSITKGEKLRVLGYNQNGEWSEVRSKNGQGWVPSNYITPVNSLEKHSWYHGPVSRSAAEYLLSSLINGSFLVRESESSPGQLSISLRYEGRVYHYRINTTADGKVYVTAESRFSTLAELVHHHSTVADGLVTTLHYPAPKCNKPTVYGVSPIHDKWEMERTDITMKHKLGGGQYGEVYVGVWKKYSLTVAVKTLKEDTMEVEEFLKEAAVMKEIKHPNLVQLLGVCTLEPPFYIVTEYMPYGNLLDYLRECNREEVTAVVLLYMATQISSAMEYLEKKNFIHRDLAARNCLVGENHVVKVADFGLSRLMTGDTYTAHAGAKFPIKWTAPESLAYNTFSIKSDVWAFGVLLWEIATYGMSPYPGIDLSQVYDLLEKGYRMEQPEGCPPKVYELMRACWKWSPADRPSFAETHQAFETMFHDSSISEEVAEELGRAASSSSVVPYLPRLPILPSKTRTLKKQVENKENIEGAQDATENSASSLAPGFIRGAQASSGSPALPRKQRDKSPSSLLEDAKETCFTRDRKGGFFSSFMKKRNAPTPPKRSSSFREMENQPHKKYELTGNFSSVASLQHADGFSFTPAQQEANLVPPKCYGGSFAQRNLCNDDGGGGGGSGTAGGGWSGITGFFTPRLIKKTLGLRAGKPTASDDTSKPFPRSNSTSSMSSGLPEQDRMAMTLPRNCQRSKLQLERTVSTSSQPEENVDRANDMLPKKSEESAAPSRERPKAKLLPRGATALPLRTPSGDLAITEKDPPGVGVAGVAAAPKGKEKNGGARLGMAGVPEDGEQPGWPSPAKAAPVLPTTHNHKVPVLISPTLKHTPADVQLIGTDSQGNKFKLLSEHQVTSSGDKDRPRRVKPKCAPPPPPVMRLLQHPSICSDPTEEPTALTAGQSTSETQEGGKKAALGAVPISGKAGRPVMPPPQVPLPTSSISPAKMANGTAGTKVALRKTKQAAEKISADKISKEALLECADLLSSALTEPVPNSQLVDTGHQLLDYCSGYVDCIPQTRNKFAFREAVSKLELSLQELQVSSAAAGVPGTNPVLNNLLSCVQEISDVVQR
Sequence of TGFBR2 (human) (P37173 whole entry, looked up): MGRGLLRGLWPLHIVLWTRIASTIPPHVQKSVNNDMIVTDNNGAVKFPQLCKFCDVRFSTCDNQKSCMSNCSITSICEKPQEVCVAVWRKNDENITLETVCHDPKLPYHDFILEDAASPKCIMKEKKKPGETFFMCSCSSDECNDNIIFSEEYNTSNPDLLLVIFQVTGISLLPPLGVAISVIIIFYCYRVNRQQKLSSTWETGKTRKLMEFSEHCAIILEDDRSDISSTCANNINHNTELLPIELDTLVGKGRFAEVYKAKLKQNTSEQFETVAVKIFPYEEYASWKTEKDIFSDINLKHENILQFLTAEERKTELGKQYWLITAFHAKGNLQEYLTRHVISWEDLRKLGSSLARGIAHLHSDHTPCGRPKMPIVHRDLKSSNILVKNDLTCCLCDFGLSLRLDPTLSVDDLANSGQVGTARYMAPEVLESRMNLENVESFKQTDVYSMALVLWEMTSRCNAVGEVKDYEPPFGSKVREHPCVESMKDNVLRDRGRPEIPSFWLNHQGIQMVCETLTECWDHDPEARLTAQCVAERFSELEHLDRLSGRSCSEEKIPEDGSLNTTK
Sequence of MAP3K1 (human) (Q13233 whole entry, looked up): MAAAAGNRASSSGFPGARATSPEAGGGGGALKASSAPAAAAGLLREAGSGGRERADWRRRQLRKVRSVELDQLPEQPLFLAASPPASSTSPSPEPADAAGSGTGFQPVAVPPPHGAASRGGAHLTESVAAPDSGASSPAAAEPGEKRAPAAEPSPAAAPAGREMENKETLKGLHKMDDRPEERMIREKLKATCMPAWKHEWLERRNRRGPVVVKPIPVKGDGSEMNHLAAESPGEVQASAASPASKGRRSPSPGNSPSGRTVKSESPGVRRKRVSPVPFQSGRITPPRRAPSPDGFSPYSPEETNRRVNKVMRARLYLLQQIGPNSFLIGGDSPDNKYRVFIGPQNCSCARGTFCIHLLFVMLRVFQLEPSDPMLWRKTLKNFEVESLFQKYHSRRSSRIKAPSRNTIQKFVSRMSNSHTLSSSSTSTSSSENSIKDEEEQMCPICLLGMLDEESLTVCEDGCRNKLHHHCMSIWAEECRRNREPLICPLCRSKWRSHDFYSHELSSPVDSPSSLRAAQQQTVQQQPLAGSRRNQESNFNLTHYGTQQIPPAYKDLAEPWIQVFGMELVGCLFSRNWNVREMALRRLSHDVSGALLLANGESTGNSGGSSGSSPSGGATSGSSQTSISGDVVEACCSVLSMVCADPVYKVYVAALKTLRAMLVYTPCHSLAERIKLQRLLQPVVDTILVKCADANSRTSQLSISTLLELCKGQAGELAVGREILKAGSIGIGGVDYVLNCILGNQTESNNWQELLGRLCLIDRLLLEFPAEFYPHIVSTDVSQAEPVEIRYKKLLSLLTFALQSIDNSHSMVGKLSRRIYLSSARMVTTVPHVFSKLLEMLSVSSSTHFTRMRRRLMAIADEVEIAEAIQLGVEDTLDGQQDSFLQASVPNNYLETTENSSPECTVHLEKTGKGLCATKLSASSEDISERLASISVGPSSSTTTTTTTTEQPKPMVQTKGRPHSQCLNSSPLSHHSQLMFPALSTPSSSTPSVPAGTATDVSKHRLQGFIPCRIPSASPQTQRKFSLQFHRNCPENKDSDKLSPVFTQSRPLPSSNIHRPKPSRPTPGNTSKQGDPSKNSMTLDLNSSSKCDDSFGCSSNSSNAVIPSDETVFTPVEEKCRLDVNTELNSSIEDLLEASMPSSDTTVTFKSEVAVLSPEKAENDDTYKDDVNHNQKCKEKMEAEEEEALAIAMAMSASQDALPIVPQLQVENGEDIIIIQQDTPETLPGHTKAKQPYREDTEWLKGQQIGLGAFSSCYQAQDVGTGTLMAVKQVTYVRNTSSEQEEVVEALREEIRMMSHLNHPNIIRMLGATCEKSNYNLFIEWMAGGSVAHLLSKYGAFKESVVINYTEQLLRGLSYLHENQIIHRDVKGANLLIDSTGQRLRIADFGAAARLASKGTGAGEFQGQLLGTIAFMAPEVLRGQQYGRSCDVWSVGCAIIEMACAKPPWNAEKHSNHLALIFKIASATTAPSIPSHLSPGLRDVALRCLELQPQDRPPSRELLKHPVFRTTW
Sequence of CAMK2B (human) (Q13554 whole entry, looked up): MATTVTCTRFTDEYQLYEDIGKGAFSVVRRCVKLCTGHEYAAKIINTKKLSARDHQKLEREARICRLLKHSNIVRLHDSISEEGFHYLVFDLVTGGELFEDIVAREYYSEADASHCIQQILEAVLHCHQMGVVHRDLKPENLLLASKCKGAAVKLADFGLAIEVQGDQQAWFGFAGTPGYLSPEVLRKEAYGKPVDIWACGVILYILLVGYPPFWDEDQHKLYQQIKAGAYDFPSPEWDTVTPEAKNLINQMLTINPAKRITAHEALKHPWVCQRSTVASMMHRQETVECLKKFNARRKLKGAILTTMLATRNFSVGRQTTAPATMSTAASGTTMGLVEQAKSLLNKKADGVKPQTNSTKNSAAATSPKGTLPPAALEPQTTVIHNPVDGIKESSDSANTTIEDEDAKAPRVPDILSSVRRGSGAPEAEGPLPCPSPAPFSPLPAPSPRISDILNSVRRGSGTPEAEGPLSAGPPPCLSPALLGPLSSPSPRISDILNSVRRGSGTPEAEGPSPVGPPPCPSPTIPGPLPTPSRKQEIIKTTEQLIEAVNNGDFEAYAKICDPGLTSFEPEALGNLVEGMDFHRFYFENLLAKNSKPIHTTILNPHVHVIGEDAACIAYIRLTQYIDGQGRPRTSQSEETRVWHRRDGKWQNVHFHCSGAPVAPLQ
Sequence of FYN (human) (P06241 whole entry, looked up): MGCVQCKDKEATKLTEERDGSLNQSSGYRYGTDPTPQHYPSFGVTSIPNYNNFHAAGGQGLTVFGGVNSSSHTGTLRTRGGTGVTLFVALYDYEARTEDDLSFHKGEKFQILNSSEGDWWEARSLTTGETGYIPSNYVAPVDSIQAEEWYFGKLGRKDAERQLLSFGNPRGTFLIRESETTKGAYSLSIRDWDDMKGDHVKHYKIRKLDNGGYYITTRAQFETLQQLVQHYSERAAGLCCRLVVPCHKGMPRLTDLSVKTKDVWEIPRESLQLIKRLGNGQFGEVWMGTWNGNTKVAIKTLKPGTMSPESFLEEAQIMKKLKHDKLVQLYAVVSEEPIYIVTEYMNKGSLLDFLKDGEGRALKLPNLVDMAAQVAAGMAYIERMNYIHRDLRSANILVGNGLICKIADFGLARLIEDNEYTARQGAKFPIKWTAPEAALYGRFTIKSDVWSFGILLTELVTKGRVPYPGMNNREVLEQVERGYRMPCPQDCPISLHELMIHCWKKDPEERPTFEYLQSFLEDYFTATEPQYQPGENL
Sequence of MAP2K2 (human) (P36507 whole entry, looked up): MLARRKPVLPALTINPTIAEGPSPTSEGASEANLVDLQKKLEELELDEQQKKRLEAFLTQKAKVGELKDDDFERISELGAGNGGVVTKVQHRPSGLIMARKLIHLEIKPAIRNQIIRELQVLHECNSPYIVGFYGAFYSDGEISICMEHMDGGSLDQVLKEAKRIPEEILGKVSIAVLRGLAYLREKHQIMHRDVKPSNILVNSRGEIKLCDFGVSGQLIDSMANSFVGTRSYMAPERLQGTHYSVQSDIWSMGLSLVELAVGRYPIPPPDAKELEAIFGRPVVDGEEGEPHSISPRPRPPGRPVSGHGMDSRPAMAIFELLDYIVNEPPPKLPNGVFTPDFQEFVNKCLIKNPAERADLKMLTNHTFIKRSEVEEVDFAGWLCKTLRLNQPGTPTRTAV

IC50 (CAMK2G (human)): 8.42 µM
IC50 (MAP3K5 (human)): > 10 µM
IC50 (CSK (human)): > 10 µM
IC50 (SRC (human)): > 10 µM
IC50 (SGK223 (human)): > 10 µM
IC50 (PAK4 (human)): > 10 µM
IC50 (CAMK2A (human)): > 10 µM
IC50 (IKBKE (human)): > 10 µM
IC50 (STRADA (human)): > 10 µM
IC50 (CAMK1D (human)): > 10 µM
IC50 (FYN (human)): > 10 µM
IC50 (JAK1 JH1 JH2 (human)): > 10 µM
IC50 (ABL2 (human)): > 10 µM
IC50 (RPS6KA4 KD1 KD2 (human)): 6.42 µM
IC50 (FER (human)): > 10 µM
IC50 (MAP2K2 (human)): > 10 µM
IC50 (TGFBR2 (human)): > 10 µM
IC50 (LIMK1 (human)): > 10 µM
IC50 (TYK2 JH1 JH2 (human)): 2.48 µM
IC50 (PRKAA1 (human)): > 10 µM
IC50 (RPS6KA5 KD1 KD2 (human)): > 10 µM
IC50 (STK17B (human)): > 10 µM
IC50 (MAP2K5 (human)): 9.71 µM
IC50 (MAP3K2 (human)): > 10 µM
IC50 (MAST3 (human)): > 10 µM
IC50 (MAP3K1 (human)): > 10 µM
IC50 (FES (human)): > 10 µM
IC50 (CDK13 (human)): 4.4 µM
IC50 (CSNK2A1 (human)): 9.42 µM
IC50 (PRKD2 (human)): 1.26 µM
IC50 (EIF2AK4 KD1 KD2 (human)): > 10 µM
IC50 (STK10 (human)): > 10 µM
IC50 (MARK2 (human)): > 10 µM
IC50 (CDK14 (human)): 2.96 µM
IC50 (FGR (human)): > 10 µM
IC50 (CAMK2B (human)): 7.68 µM
IC50 (SIK3 (human)): > 10 µM
IC50 (ITK (human)): > 10 µM
IC50 (HCK (human)): > 10 µM
IC50 (MAP4K5 (human)): > 10 µM
IC50 (MAPK1 (human)): > 10 µM
IC50 (MAP3K4 (human)): > 10 µM
IC50 (CAMKK2 (human)): 0.925 µM
Structure (SMILES): CN1CC[C@H](c2c(O)cc(O)c3c(=O)cc(-c4ccccc4Cl)oc23)[C@H](O)C1
